These results are taken from publication PMC13504986 (Nature, 2024).

The target in one experiment is T1, OR1A1 (Homo sapiens, UniProt Q9P1Q5).
T1 sequence (Q9P1Q5 1-309): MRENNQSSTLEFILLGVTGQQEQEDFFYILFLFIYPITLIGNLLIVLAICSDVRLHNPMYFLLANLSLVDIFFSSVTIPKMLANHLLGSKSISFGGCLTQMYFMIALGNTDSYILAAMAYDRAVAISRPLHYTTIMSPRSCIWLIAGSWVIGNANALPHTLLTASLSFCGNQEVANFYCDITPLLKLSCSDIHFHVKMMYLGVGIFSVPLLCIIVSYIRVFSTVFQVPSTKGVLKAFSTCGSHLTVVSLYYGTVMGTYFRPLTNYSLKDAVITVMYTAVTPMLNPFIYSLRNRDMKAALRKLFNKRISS
As to the kind of experiment: GloSensor cAMP assay, HEK293T with RTP1S. The experiment is classed as cell-based.

The target of a further experiment is T2, OR51E1 (Homo sapiens, UniProt Q8TCB6).
T2 sequence (Q8TCB6 2-318 limits assumed): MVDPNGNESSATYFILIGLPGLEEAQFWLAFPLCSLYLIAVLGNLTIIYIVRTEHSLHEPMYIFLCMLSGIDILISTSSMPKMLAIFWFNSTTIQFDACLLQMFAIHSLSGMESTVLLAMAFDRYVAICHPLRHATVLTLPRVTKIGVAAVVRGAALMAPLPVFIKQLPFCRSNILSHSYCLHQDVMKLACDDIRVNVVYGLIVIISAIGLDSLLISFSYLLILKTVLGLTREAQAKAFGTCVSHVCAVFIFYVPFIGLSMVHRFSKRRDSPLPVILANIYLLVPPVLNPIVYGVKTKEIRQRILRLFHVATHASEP
As to the kind of experiment: GloSensor cAMP assay, HEK293T. It is filed as cell-based. On the technique in general: Changes in cAMP serve as a functional read-out for many G protein-coupled receptors.

In the case of `CC(C)[C@@H]1CC[C@@H](C)C[C@H]1O` [L-menthol], the midpoint of the response on OR1A1, the EC50, lay at 38.9 µM.

Turning to `CCCCC(=O)O` [pentanoate], on OR51E1, the concentration for a half-maximal effect (EC50) (as a rule, the concentration needed to bring the measured effect to its halfway point) was 34.7 µM.

`C=C(C)[C@@H]1CC=C(C)C(=O)C1` [R-carvone] showed a 50% effective concentration (EC50) at OR1A1 of 0.513 µM.
